Biological target: T1, HCN1 (Mus musculus, UniProt O88704)
T1 construct: full-length HCN1
Experiment: two-electrode voltage clamp, channel expressed in Xenopus laevis oocytes (shift in V1/[…])
Format: cell-based

T1 sequence (O88704 whole entry): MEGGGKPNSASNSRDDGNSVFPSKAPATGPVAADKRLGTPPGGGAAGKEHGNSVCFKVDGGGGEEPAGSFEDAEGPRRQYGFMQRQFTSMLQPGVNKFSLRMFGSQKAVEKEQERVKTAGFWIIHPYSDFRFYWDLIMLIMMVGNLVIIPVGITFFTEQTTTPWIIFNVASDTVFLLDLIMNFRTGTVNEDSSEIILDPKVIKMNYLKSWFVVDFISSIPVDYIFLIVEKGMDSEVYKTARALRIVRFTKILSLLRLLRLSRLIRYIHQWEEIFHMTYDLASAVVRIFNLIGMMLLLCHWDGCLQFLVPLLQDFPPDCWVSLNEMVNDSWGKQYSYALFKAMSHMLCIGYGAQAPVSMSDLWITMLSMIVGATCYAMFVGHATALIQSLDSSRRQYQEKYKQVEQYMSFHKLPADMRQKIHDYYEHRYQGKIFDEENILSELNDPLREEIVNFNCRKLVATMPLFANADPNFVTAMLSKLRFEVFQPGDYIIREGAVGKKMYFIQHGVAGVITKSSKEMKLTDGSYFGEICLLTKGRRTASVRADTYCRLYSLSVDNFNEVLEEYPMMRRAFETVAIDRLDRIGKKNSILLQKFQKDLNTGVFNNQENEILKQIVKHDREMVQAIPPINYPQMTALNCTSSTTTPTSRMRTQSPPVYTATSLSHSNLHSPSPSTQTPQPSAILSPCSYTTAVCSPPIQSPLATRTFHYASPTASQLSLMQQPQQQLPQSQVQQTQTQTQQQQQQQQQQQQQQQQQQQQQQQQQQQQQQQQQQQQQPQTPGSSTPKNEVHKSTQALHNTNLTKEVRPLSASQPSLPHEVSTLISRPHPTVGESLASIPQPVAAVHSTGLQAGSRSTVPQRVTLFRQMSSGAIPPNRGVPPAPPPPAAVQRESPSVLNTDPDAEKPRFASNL

IC50: 13.9 ± 0.8 µM
Structure (SMILES): c1ccc2c(c1)N=C(N1CCNCC1)c1ccccc1S2 [NQTP, norquetiapine]

Source: article PMC11491390, “Inhibition of HCN1 currents by norquetiapine, an active metabolite of the atypical anti-psychotic drug quetiapine” (Frontiers in Pharmacology, 2024)
